In one experiment the target is T1, human recombinant HDAC1 (Homo sapiens, UniProt Q13547).
T1 construct: purchased Enzo Life Science, Inc. BML-SE456
As to the kind of experiment: HDAC1 enzyme activity inhibition (HDAC Fluorimetric Drug Discovery Kit). The class given is biochemical. Conditions: human recombinant HDAC1, Fluor de Lys substrate, 30° C. 60 minutes; read-out: HDAC1. The procedure, abridged:
(§1)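 Each isoform is run in the same format: compound dilutions (5-fold steps), 10 μM substrate, […] enzyme, one hour at 30° C, then 30 minutes with developer before fluorescence readout.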

A further experiment addresses T2, human recombinant HDAC6 (Homo sapiens, UniProt Q9UBN7).
T2 construct: purchased Calbiochem Inc. 382180
T2 sequence (Q9UBN7 1-1215): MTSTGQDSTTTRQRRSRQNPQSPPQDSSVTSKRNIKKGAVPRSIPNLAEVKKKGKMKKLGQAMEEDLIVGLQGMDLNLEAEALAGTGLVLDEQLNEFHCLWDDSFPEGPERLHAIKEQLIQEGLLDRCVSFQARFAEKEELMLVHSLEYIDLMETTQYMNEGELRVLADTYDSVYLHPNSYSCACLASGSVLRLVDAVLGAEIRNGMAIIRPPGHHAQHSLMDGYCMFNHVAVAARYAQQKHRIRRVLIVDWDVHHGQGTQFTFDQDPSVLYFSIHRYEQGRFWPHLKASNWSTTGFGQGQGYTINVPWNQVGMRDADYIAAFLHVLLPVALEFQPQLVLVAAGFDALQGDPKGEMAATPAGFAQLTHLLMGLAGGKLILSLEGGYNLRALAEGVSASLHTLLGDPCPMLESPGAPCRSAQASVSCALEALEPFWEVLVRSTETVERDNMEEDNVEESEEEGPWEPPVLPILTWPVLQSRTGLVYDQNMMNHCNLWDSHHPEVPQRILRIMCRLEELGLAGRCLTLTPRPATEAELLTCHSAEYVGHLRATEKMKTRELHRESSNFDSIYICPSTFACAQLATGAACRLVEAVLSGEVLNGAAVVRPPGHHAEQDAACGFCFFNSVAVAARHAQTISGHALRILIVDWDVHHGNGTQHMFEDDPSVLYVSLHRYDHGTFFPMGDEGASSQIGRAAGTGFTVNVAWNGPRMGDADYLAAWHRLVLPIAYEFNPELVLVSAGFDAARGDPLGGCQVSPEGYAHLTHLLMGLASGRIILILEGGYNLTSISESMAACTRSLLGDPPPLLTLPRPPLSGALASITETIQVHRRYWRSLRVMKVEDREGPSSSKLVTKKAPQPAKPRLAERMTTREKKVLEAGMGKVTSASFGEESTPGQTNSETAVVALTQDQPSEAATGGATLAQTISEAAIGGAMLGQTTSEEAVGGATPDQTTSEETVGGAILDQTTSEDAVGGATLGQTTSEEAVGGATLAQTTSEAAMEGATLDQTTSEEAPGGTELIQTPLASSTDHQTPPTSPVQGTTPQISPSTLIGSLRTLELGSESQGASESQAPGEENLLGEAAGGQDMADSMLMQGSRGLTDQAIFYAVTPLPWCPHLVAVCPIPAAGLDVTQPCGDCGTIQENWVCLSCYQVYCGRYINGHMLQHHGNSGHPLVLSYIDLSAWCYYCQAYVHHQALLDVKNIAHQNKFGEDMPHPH
Briefly: HDAC6 enzyme activity inhibition (HDAC Fluorimetric Drug Discovery Kit). The class given is biochemical. As to conditions: for HDAC6 selectivity (fold): HDAC6 over HDAC1; for IC50: human recombinant HDAC6, same protocol as HDAC1. The method in brief: as §1

Results on 18 molecules are retold here after patent publication US20230257372A1 (CHONG KUN DANG PHARMACEUTICAL CORP., priority 2020, published 2023).

Where only a bound is given, the exact number is not on record here.

T1 sequence (Q13547 whole entry): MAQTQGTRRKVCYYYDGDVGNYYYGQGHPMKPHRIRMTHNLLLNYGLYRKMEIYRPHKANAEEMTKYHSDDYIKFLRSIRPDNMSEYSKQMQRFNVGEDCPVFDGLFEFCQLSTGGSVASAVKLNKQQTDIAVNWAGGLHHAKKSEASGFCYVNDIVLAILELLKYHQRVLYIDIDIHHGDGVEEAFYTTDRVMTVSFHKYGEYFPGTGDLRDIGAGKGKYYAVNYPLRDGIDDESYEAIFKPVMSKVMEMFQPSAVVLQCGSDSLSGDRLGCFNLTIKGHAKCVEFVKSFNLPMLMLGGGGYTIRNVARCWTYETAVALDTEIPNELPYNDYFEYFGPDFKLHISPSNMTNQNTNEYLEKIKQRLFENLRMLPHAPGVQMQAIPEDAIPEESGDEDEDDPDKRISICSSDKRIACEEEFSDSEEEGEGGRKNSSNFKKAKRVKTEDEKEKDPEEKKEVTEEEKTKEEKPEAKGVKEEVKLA

With `FC(F)c1nnc(-c2ccc(Cn3cc(-c4cccc5c4CN(C4COC4)C5)nn3)nc2)o1` [Compound 4599, 2-(difluoromethyl)-5-(6-((4-(2-(oxetan-3-yl)isoindolin-4-yl)-1H-1,2,3-triazol-1-yl)methyl)pyridin-3-yl)-1,3,4-oxadiazole], at human recombinant HDAC1, the IC50 is more than 50000 nM. In addition, on human recombinant HDAC6, the “HDAC6 selectivity (fold)” value worked out at 662 fold and the IC50 was determined as 75.5 nM.
The matching figures for `Fc1c(-c2cn(Cc3ccc(-c4nnc(C(F)F)o4)cn3)nn2)cccc1N1CCN(CC2(F)CC2)CC1` [Compound 4600, 2-(difluoromethyl)-5-(6-((4-(2-fluoro-3-(4-((1-fluorocyclopropyl)methyl)piperazin-1-yl)phenyl)-1H-1,2,3-triazol-1-yl)methyl)pyridin-3-yl)-1,3,4-oxadiazole]: more than 50000 nM, 1533 fold and 32.6 nM.
For the molecule `Fc1c(-c2cn(Cc3ccc(-c4nnc(C(F)F)o4)cn3)nn2)cccc1N1CCN(CC2CC(F)(F)C2)CC1` [Compound 4601, 2-(6-((4-(3-(4-((3,3-difluorocyclobutyl)methyl)piperazin-1-yl)-2-fluorophenyl)-1H-1,2,3-triazol-1-yl)methyl)pyridin-3-yl)-5-(difluoromethyl)-1,3,4-oxadiazole], on human recombinant HDAC1, the IC50 was more than 50000 nM. Besides, on human recombinant HDAC6, the “HDAC6 selectivity (fold)” value was found to be 1392 fold and the IC50 amounted to 35.9 nM.
For `Fc1cc(-c2nnc(C(F)F)o2)ccc1Cn1cc(-c2cccc(N3CCN(CC4(F)CC4)CC3)c2F)nn1` [Compound 4602, 2-(difluoromethyl)-5-(3-fluoro-4-((4-(2-fluoro-3-(4-((1-fluorocyclopropyl)methyl)piperazin-1-yl)phenyl)-1H-1,2,3-triazol-1-yl)methyl)phenyl)-1,3,4-oxadiazole], the IC50 on human recombinant HDAC1 is more than 50000 nM. On human recombinant HDAC6, the “HDAC6 selectivity (fold)” value was found to be 313 fold and the IC50 was 160 nM.
In the case of `Fc1cc(-c2nnc(C(F)F)o2)ccc1Cn1cc(-c2cccc(N3CCN(CC4CC(F)(F)C4)CC3)c2F)nn1` [Compound 4603, 2-(4-((4-(3-(4-((3,3-difluorocyclobutyl)methyl)piperazin-1-yl)-2-fluorophenyl)-1H-1,2,3-triazol-1-yl)methyl)-3-fluorophenyl)-5-(difluoromethyl)-1,3,4-oxadiazole], the IC50 on human recombinant HDAC1 was more than 50000 nM. Also, on human recombinant HDAC6, the “HDAC6 selectivity (fold)” value was found to be 744 fold and the IC50 was found to be 67.2 nM.
The matching figures for `CN(C)[C@H]1CCN(Cc2ccc(-c3cn(Cc4ccc(-c5nnc(C(F)F)o5)cc4F)nn3)cc2)C1` [Compound 4604, (S)-1-(4-(1-(4-(5-(difluoromethyl)-1,3,4-oxadiazol-2-yl)-2-fluorobenzyl)-1H-1,2,3-triazol-4-yl)benzyl)-N,N-dimethylpyrrolidin-3-amine]: more than 50000 nM, 2347 fold and 21.3 nM.
The like results for `CN(C)[C@@H]1CCN(Cc2ccc(-c3cn(Cc4ccc(-c5nnc(C(F)F)o5)cc4F)nn3)cc2)C1` [Compound 4605, (R)-1-(4-(1-(4-(5-(difluoromethyl)-1,3,4-oxadiazol-2-yl)-2-fluorobenzyl)-1H-1,2,3-triazol-4-yl)benzyl)-N,N-dimethylpyrrolidin-3-amine] were, in that order, more than 50000 nM, 2380 fold and 21 nM.
Take `Fc1cc(-c2nnc(C(F)F)o2)ccc1Cn1cc(-c2ccc(CN3CC[C@H](F)C3)cc2)nn1` [Compound 4606, (S)-2-(difluoromethyl)-5-(3-fluoro-4-((4-(4-((3-fluoropyrrolidin-1-yl)methyl)phenyl)-1H-1,2,3-triazol-1-yl)methyl)phenyl)-1,3,4-oxadiazole]: the IC50 at human recombinant HDAC1 was more than 50000 nM. Also, on human recombinant HDAC6, the “HDAC6 selectivity (fold)” value is listed as 2415 fold and the IC50 came out at 20.7 nM.
The like results for `Fc1cc(-c2nnc(C(F)F)o2)ccc1Cn1cc(-c2ccc(CN3CC[C@@H](F)C3)cc2)nn1` [Compound 4607, (R)-2-(difluoromethyl)-5-(3-fluoro-4-((4-(4-((3-fluoropyrrolidin-1-yl)methyl)phenyl)-1H-1,2,3-triazol-1-yl)methyl)phenyl)-1,3,4-oxadiazole] were, in that order, more than 50000 nM, 2512 fold and 19.9 nM.
The matching figures for `CCN(CC)Cc1ccc(-c2cn(Cc3ccc(-c4nnc(C(F)F)o4)cc3F)nn2)cc1` [Compound 4608, N-(4-(1-(4-(5-(difluoromethyl)-1,3,4-oxadiazol-2-yl)-2-fluorobenzyl)-1H-1,2,3-triazol-4-yl)benzyl)-N-ethylethanamine]: more than 50000 nM, 1893 fold and 26.4 nM.
Turning to `Fc1cc(-c2nnc(C(F)F)o2)ccc1Cn1cc(-c2ccc(CNC3CCCC3)cc2)nn1` [Compound 4609, N-(4-(1-(4-(5-(difluoromethyl)-1,3,4-oxadiazol-2-yl)-2-fluorobenzyl)-1H-1,2,3-triazol-4-yl)benzyl)cyclopentanamine], the IC50 was more than 50000 nM at human recombinant HDAC1 and 15.8 nM on human recombinant HDAC6. Besides, the “HDAC6 selectivity (fold)” value on human recombinant HDAC6 came to 3164 fold.
The matching figures for `Fc1cc(-c2nnc(C(F)F)o2)ccc1Cn1cc(-c2ccc(CN3CCCCC3)cc2)nn1` [Compound 4610, 2-(difluoromethyl)-5-(3-fluoro-4-((4-(4-(piperidin-1-ylmethyl)phenyl)-1H-1,2,3-triazol-1-yl)methyl)phenyl)-1,3,4-oxadiazole]: more than 50000 nM, 14.3 nM and 3496 fold.
With `CC1CCN(Cc2ccc(-c3cn(Cc4ccc(-c5nnc(C(F)F)o5)cc4F)nn3)cc2)CC1` [Compound 4611, 2-(difluoromethyl)-5-(3-fluoro-4-((4-(4-((4-methylpiperidin-1-yl)methyl)phenyl)-1H-1,2,3-triazol-1-yl)methyl)phenyl)-1,3,4-oxadiazole], the IC50 at human recombinant HDAC1 was more than 50000 nM. Also, on human recombinant HDAC6, the “HDAC6 selectivity (fold)” value was found to be 2793 fold and the IC50 was determined as 17.9 nM.
The matching figures for `CCN1CCN(c2cc(-c3cn(Cc4ccc(-c5nnc(C(F)F)o5)cc4F)nn3)ccn2)CC1` [Compound 4634, 2-(difluoromethyl)-5-(4-((4-(2-(4-ethylpiperazin-1-yl)pyridin-4-yl)-1H-1,2,3-triazol-1-yl)methyl)-3-fluorophenyl)-1,3,4-oxadiazole]: more than 50000 nM, 2074 fold and 24.1 nM.
The like results for `CC(C)N1CCN(c2cc(-c3cn(Cc4ccc(-c5nnc(C(F)F)o5)cc4F)nn3)ccn2)CC1` [Compound 4635] were, in that order, more than 50000 nM, 2525 fold and 19.8 nM.
With `Fc1cc(-c2nnc(C(F)F)o2)ccc1Cn1cc(-c2ccnc(N3CCN(C4COC4)CC3)c2)nn1` [Compound 4636], the figures for the IC50 on human recombinant HDAC1 and on human recombinant HDAC6 were more than 50000 nM and 31.9 nM, respectively. Also, the “HDAC6 selectivity (fold)” value on human recombinant HDAC6 was 1567 fold.
In the case of `Fc1cc(-c2nnc(C(F)F)o2)ccc1Cn1cc(-c2ccnc(N3CCN(C4CCC4)CC3)c2)nn1` [Compound 4640, 2-(4-((4-(2-(4-cyclobutylpiperazin-1-yl)pyridin-4-yl)-1H-1,2,3-triazol-1-yl)methyl)-3-fluorophenyl)-5-(difluoromethyl)-1,3,4-oxadiazole], the IC50 at human recombinant HDAC1 was more than 50000 nM. Also, at human recombinant HDAC6, the “HDAC6 selectivity (fold)” value is 807 fold and the IC50 is 61.9 nM.
As for `Fc1cc(-c2nnc(C(F)F)o2)ccc1Cn1cc(-c2ccc(Cl)nc2)nn1` [Compound 16781, 2-(4-((4-(6-chloropyridin-3-yl)-1H-1,2,3-triazol-1-yl)methyl)-3-fluorophenyl)-5-(difluoromethyl)-1,3,4-oxadiazole], the IC50 at human recombinant HDAC1 is more than 50000 nM. Also, at human recombinant HDAC6, the “HDAC6 selectivity (fold)” value was 546 fold and the IC50 stood at 91.5 nM.
